Laboratory results as given in BindingDB's records for patent US20250066353 (Athos Therapeutics, 2025).

Biological target: T1, Pantetheinase (Homo sapiens, UniProt O95497)
T1 sequence (O95497 whole entry): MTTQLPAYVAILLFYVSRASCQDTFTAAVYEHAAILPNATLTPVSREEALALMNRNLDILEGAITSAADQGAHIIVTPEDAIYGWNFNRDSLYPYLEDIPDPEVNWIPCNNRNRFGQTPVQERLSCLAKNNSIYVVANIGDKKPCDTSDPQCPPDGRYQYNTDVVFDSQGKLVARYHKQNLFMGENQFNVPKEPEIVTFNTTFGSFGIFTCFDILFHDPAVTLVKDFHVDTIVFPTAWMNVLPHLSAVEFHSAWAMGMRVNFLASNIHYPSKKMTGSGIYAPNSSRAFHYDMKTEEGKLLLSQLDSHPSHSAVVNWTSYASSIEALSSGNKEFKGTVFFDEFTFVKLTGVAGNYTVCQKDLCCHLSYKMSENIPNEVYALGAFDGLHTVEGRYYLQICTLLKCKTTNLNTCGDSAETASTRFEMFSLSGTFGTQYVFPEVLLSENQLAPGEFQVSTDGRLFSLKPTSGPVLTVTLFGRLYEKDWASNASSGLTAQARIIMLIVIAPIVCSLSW
Test: VNN1 Inhibitor Binding Assay
Experimental: 5 μL of 3× (45 μM) of Pantothenate-AMC to achieve final concentrations of 15 μM (0.25% DMSO final) were added in a 384 well assay plate followed by the addition of 5 μL of 3× the desired concentration of the tested compounds (Compound 1; Compound 2; and RR6) in 0.75% DMSO to designated wells (0.25% of DMSO final). The range of the compound concentrations tested was 10, 3.33, 1.11, 0.37, 0.12, 0.04, 0.01, 0.0046, 0.001, and 0.0005 μM. 5 μL of 0.75% DMSO were also added to positive and negative control wells.5 μL of 1.4 ng/μL Vanain-1 was added to the assay plate to achieve a final amount of 7 ng/well, and covered with plate sealer. Another 5 μL of assay buffer was added to negative controls and the assay plate was then centrifuged briefly (1000 rpm for 30 s) in a plate centrifuge. The assay plate was incubated in the dark for 20 minutes at room temperature and immediately read on an Envision 2105, PerkinElmer multimode plate reader.The fluorescence read was captured at excitation wavelength of 355 nm and emission wavelength of 460 nm.

SMILES: CC(=O)NCCN1Cc2nc(NCc3cncc(C#N)c3)ccc2C1=O [US20250066353, Compound 41]
- IC50: > 10 µM
